From patent US11473094B2, “Methods for improving competency of plant cells” (Monsanto Technology LLC, priority 2010, dated 2022)

Test system: Soybean cv. A3555 dry embryos
Test: Transformation frequency, PEG compared to other osmotic compounds
Type: cell-based
Conditions: 1 hour contact, AB30/OriRi
Source text: It also compares TF enhancement of treatments with various PEG species. Soybean cv. […] dry embryos were excised according to the method described in U.S. Patent Application Publication No. 2008/0280361 and contacted for an hour with various amounts of PEG-4000, PEG-6000, PEG-8000, Mannitol, Sorbitol, or Glycerol dissolved in SDW. The embryos were then rinsed 5-6× with SDW and transformed according to the methods described in U.S. Patent Application Publication No. 2009/0138985. The embryos were transformed with a 2T transformation vector having an OriRi replication of origin and contained in AB30 strain of Agrobacterium. The embryos were regenerated on spectinomycin selection medium.

Compound | # R0 Plants (10% in SDW) | TF (10% in SDW) | # R0 Plants (20% in SDW) | TF (20% in SDW)
OC[C@@H](O)[C@@H](O)[C@H](O)[C@@H](O)CO [sorbitol, Sorbitol] | 4 | 0.40% | 3 | 0.30%
OC[C@@H](O)[C@@H](O)[C@H](O)[C@H](O)CO [mannitol, Mannitol] | 5 | 0.50% | – | –
OCC(O)CO [glycerol, Glycerol] | 4 | 2.30% | 0 | 0.00%
